What all share (conditions): stereoisomer not certain
The nature of data set [1]: HILIC, Phenomenex Kinetex HILIC, 150 × 3 mm, 2.6 µm, 40 °C, 0.35 mL/min, estimated dead time 1.9 min; A: water + 0.1% formic acid, pH 3; B: methanol; gradient (min/%B) 0/95 20/0 25/0 30/95.
Data set [2] is described as follows: RP, Phenomenex Kinetex EVO C18, 150 × 3 mm, 2.6 µm, 40 °C, 0.35 mL/min, estimated dead time 1.9 min; A: water + 0.1% formic acid, pH 3; B: methanol; gradient (min/%B) 0/5 20/100 25/100 30/5.
A short description of data set [3]: RP, Phenomenex Kinetex PS C18, 150 × 3 mm, 2.6 µm, 40 °C, 0.35 mL/min, estimated dead time 1.9 min; A: water + 5 mM ammonium acetate, pH 5; B: methanol; gradient (min/%B) 0/5 20/100 25/100 30/5.
Data set [4] can be described thus: RP, Phenomenex Kinetex EVO C18, 150 × 3 mm, 2.6 µm, 40 °C, 0.35 mL/min, estimated dead time 1.9 min; A: water + 5 mM ammonium formate, pH 5; B: acetonitrile; gradient (min/%B) 0/5 20/100 25/100 30/5.

Structures are written as SMILES.

This is an account of results in the RepoRT retention time repository (doi:10.1016/j.chroma.2022.462867).

With `CC(=O)N1CCN(c2ccc(OCC3COC(Cn4ccnc4)(c4ccc(Cl)cc4Cl)O3)cc2)CC1` (configuration not stated) [Ketoconazole], the LC retention time in data set [1] is 4.05 min; in data set [2], 11.2 min; in data set [3] it was 17.6 min; in data set [4] it was 12.2 min.

Take `CCN=C1NC(NC(C)C)=NC(SC)N1` (configuration not stated) [Ametryn]: the LC retention time is 2.32 min in data set [1], 15.1 min in data set [3] and 11.3 min in data set [4].

With `CCN=C1NC(NC(C)C)=NC(OC)N1` (configuration not stated) [Atraton], the LC retention time is 2.68 min in data set [1], 8.8 min in data set [2] and 13.7 min in data set [3].

With `O=C(CCCN1CCC(O)(c2ccc(Cl)cc2)CC1)c1ccc(F)cc1` [Haloperidol], the LC retention time is 3.41 min in data set [1], 9.88 min in data set [2], 13.7 min in data set [3] and 12.3 min in data set [4].

As for `CC(C)(C)C(=O)C(Oc1ccc(Cl)cc1)n1ccnc1` (configuration not stated) [Climbazole], the LC retention time in data set [1] is 2.73 min; in data set [2], 11.5 min; in data set [3] it was 16.2 min.

Consider `CN(C)CC(c1ccc(O)cc1)C1(O)CCCCC1` (configuration not stated) [O-Desmethylvenlafaxine], for which the LC retention time in data set [1] is 4.13 min; in data set [2], 5.49 min; in data set [3] it was 9.2 min; in data set [4], 6.48 min.

Regarding `CN1C(=O)CCC1c1cccnc1` (configuration not stated) [Cotinine], the results for the LC retention time in data set [1], in data set [3] and in data set [4] were 3.02 min, 7.52 min and 3.66 min, respectively.

`O=C(NCC1CCCCN1)c1cc(OCC(F)(F)F)ccc1OCC(F)(F)F` (configuration not stated) [Flecainide]: the LC retention time was 3.47 min in data set [1], 9.18 min in data set [2], 12.8 min in data set [3] and 11.5 min in data set [4].

For the molecule `COC(=O)C1C2CC3c4[nH]c5cc(OC)ccc5c4CCN3CC2CC(OC(=O)c2cc(OC)c(OC)c(OC)c2)C1OC` (configuration not stated) [Reserpine], the LC retention time is 3.31 min in data set [1], 11.5 min in data set [2], 17.1 min in data set [3] and 13.3 min in data set [4].

With `Cc1ccc(S(=O)(=O)N(C)N=O)cc1` [N-Methyl-N-nitrosotoluene-4-sulphonamide], the LC retention time in data set [1] is 2.38 min; in data set [2], 10.3 min; in data set [3], 13.9 min; in data set [4], 9.88 min.

Regarding `CC(=O)C1CCC2C3CCC4=CC(=O)CCC4(C)C3CCC12C` (configuration not stated) [Progesterone], the results for the LC retention time in data set [2], in data set [3] and in data set [4] were 16.9 min, 17.8 min and 13.3 min, respectively.

Take `CSc1nc2ccccc2s1` [2-(Methylthio)benzothiazole]: the LC retention time is 15.2 min in data set [2], 15 min in data set [3] and 11.6 min in data set [4].

With `Cc1cccc(C)c1N(Cn1cccn1)C(=O)CCl` [Metazachlor], the values for the LC retention time in data set [2], in data set [3] and in data set [4] were 13.7 min, 14.1 min and 10.6 min, respectively.

On to `C=CCOC(Cn1ccnc1)c1ccc(Cl)cc1Cl` (configuration not stated) [Imazalil], for which the LC retention time is 3.65 min in data set [1], 10.4 min in data set [2], 17.1 min in data set [3] and 12.9 min in data set [4].

Regarding `OC(Cn1cncn1)(Cn1cncn1)c1ccc(F)cc1F` [fluconazole], the LC retention time in data set [2] was 8.85 min; in data set [3], 9.64 min; in data set [4] it was 5.92 min.

Turning to `CC(=O)OCC(=O)C1(O)CCC2C3CCC4=CC(=O)CCC4(C)C3C(O)CC21C` (configuration not stated) [Hydrocortisonacetate], the LC retention time in data set [2] is 14.3 min; in data set [3], 15 min; in data set [4], 10.6 min.

With `CCC(=O)Nc1ccc(Cl)c(Cl)c1` [Propanil], the LC retention time in data set [2] was 14.9 min; in data set [3], 15 min; in data set [4], 11.8 min.

For `CN1CC(=O)NC1=N` [Creatinine], the LC retention time in data set [1] is 4 min.

Regarding `C#CC1(O)CCC2C3CCC4=CC(=O)CCC4C3CCC21C` (configuration not stated) [Norethindrone], the LC retention time in data set [2] is 14.9 min; in data set [3] it was 15.9 min; in data set [4], 11.2 min.

On to `NCC1(CC(=O)O)CCCCC1` [Gabapentin], for which the LC retention time is 3.33 min in data set [1], 4.04 min in data set [2], 5.49 min in data set [3] and 2.95 min in data set [4].

With `Nc1cnn(-c2ccccc2)c(=O)c1Cl` [Chloridazon], the LC retention time was 8.88 min in data set [2], 9.65 min in data set [3] and 6.18 min in data set [4].

As for `CC12CCC3c4ccc(O)cc4CCC3C1CCC2=O` (configuration not stated) [Estrone], the LC retention time was 15.1 min in data set [2], 15.7 min in data set [3] and 11.7 min in data set [4].
